Measurements published in patent publication US4241051A, “Calcitonin” (priority 1977, dated 1980).

Test system: bPTH-stimulated resorption
Experiment: Calcitonin ear drops in 45Ca-labelled guinea pigs; 45Ca release from explanted ossicles after bPTH stimulation
Assay type: in vivo
Conditions: for antagonism by calcitonin of the bPTH-stimulated resorption (45Ca release into bathing medium): 40 hour reading
Procedure: A large dose of radio calcium (400 μCi of ^45 Ca) is administered intravenously to each of eight guinea pigs to label their skeletons. On the third, fourth and fifth days after administration of the radiocalcium each of the guinea pigs receives ear drops containing a solution of synthetic salmon calcitonin (Armour Pharmaceutical Co.) dissolved in dimethylsulphoxide (0.1 ml of solution containing 25μg of calcitonin). Four of the animals receive calcitonin to the right ear and four to the left ear, 0.1 ml of dimethylsulphoxide being given to the other ear in each case as a control.
One hour before sacrifice on the fifth day three animals from each group of four are treated intravenously with 500 MRC units of bovine parathyroid hormone (bPTH; 2000U/mg) in diluted plasma to stimulate bone resorption, the remaining animal in each group receiving diluted plasma only as a control. After sacrifice in alternation by ether anaesthesia, the ossicles of each ear of each animal are removed by the opening the temporal bone from its lower surface, remote from the external ear to which calcitonin has been applied. They are explanted onto a filter disc (Millipore HA) in a tissue culture dish containing 1 ml of the Fitton-Jackson modification of BGJ (Gibco-Biocult Ltd) with added ascorbic acid (150 μg/ml), streptomycin (5 mg/100 ml) and penicillin (5000U/100 ml), gassed with 93% air, 7% carbon dioxide. The bathing medium is withdrawn from each dish after 20, 40 and 60 hours incubation in an airtight container at 37° C. and is replaced with freshly gassed medium. After addition to 4 ml aliquots of scintillator (Packard Instagel) the samples are subjected to liquid scintillation spectrometry (Packard 2425 set to the ^14 C channel).
In a variation of the procedure described above, the calcitonin is administered in 0.1% w/v aqueous sodium dioctyl sulphosuccinate rather than in dimethyl sulphoxide in two separate experiments, the whole of the ossicles being explanted as described above in the first case and only the stapes being explanted in the second. In these two experiments some variation is made in the radiolabelling procedure, only 200 μCi of ^45 Ca being given in the first case but intraperitoneally rather than intravenously to facilitate the labelling of bone and 400 μCi of ^45 Ca being given in the second case, also intraperitoneally, but with omission of the methyl red from the BGJ culture medium as this causes considerable quenching.
A group of twenty-four guinea pigs is treated as described in Example 1 to effect labelling of their skeletons, a dose of 400 μCi of ^45 Ca being given intraperitoneally. The animals are then divided into three groups which are treated as described in Example 1 with 0.1 ml of a solution of concentration 27.8 μg/ml, 83.3 μg/ml or 250 μg/ml of synthetic salmon calcitonin in 0.1% w/v aqueous sodium dioctyl sulphosuccinate. The subsequent treatment of the animals follows that of Example 1, the methyl red being omitted from the BGJ culture medium.

## synthetic salmon calcitonin
Example 2, 0.1 ml ear drops of 27.8 μg/ml in 0.1% w/v aqueous sodium dioctyl sulphosuccinate
  level of effect on 45Ca release from explanted ossicles: little effect
Example 2, 0.1 ml ear drops of 83.3 μg/ml in 0.1% w/v aqueous sodium dioctyl sulphosuccinate, compared with 250 μg/ml
  level of effect on 45Ca release from explanted ossicles: very similar level of effect
Example 2, 0.1 ml ear drops of 250 μg/ml in 0.1% w/v aqueous sodium dioctyl sulphosuccinate, compared with 83.3 μg/ml
  level of effect on 45Ca release from explanted ossicles: very similar level of effect
Example 2, bathing medium examined after 20, 40 and 60 hours of culture
  duration of effect after application in vivo: effect of extended duration
Ear drops 0.1 ml with 25 μg calcitonin in dimethylsulphoxide, days 3-5, whole of the ossicles explanted, p<0.01
  antagonism by calcitonin of the bPTH-stimulated resorption (45Ca release into bathing medium): highly significant
Ear drops with calcitonin in 0.1% w/v aqueous sodium dioctyl sulphosuccinate, only the stapes explanted, p<0.005
  antagonism by calcitonin of the bPTH-stimulated resorption (45Ca release into bathing medium): highly significant
Ear drops with calcitonin in 0.1% w/v aqueous sodium dioctyl sulphosuccinate, whole of the ossicles explanted, p<0.01
  antagonism by calcitonin of the bPTH-stimulated resorption (45Ca release into bathing medium): highly significant
Topical composition, calcitonin with a potency of about 4500 International units per mg
  concentration level generally required to achieve an adequate effect: greater than 25 micrograms per ml
